In US4436752A, “Treatment of gastric and gastro-duodenal disorders with derivatives of phenyl aliphatic carboxylic acids” (Roussel Uclaf, priority 1981, dated 1984):

Experiments:
[1] = tested on: ulcers in rats at the level of the stomach; assay: Determination of the anti-ulcer activity (SHAY's technique, ulcers induced by ligature of the pylorus); type: in vivo; details: rat, per os, about 16 hours after treatment
Text: (1) Determination of the anti-ulcer activity
The technique used is described by SHAY et al. in Gastroenterology, 5, 43 (1945).
SHAY's technique consists of inducing ulcers in rats at the level of the stomach by ligature of the pylorus.
The animals are anesthetized with ether. A longitudinal incision is made about 1 cm below the sternum, the glandular portion of the stomach and the duodenum are uncovered and a ligature is placed a few millimeters below the pylorus. The muscular plane is left as is and the skin is sutured by two clips.
The animals then immediately receive the dispersive or the substance to be studied per os in a volume of 0.5 ml/100 g, and are kept without food or drink until sacrificed by carotid section, effected about 16 hours after the treatment.
Before removing the stomach, a ligature is placed above the cardia.
The gastric fluid is collected in order to measure its pH.
The stomach is then opened along the greater curvature, rinsed in physiological serum and spread on graph paper in order to be examined under a binocular lens.
The severity of the lesions, graded from 0 to 4 for each stomach, is then evaluated macroscopically.
The average intensity of the ulcerations is determined for each lot of rats and the protection is calculated as the ratio of the mean index for the treated group to the mean index for the control group.
The pH of the gastric fluid is also determined for the treated animals and the control animals.

[2] = Determination of acute toxicity (LD50, oral route); details: mouse, in vivo, mice
Protocol: (2) Determination of acute toxicity
The lethal dose LD50 of the derivatives of Examples 1 and 2 was evaluated after administration by oral route to mice.

| Structure (SMILES) | Ulceration % protection, with respect to the controls ([1]; 100 mg/kg) | pH of the gastric fluid, treated animals ([1]; 100 mg/kg, control animals 2.7) | LD50 [2] | Ulceration % protection, with respect to the controls ([1]; 0.8 mg/kg) | pH of the gastric fluid, treated animals ([1]; 0.8 mg/kg, control animals 3.5) | Ulceration % protection, with respect to the controls ([1]; 4 mg/kg) | pH of the gastric fluid, treated animals ([1]; 4 mg/kg, control animals 3.2) | Ulceration % protection, with respect to the controls ([1]; 20 mg/kg) | pH of the gastric fluid, treated animals ([1]; 20 mg/kg, control animals 3.2) |
| --- | --- | --- | --- | --- | --- | --- | --- | --- | --- |
| COc1ccc(C(=O)CC(O)C(=O)O)c(OC)c1OC (stereo not shown) [Example 1, 4-(2,3,4-trimethoxyphenyl)-4-oxo-2-hydroxy butanoic acid] | 41% | 3.3 | > 1000 mg/kg | – | – | – | – | – | – |
| COc1ccc(C(=O)/C=C/C(=O)O)c(OC)c1OC [Example 2, (E) 4-(2,3,4-trimethoxyphenyl)-4-oxo-2-butenoic acid] | – | – | ~300 mg/kg | 17% | 3.1 | 76% | 3.7 | 99% | 5.8 |
